Several values for one entry are separate records, joined by “and”; a condition that tells them apart may be missing. Equal values may be shown once. Read-outs that look alike come from different tables or passages of the source. Marks after values point to notes of the source that are not given here.
Key:
Listeria innocua = test: Effect of cold plasma activation on efficacy of ionized/aerosolized H2O2 against Listeria innocua (Study 2); format: cell-based
Excerpt: (§1) To minimize the risk of possible bacteria becoming airborne during treatments, attenuated and non-pathogenic bacteria were used in the study. Two strains of non-pathogenic S. Typhimurium (ATCC 53647 and 53648) and three strains of L. innocua (ATCC 33090, ATCC 51742 and ATCC BAA680) were obtained from American Type Culture Collection (ATCC) (Manassas, Va., USA). Further studies used E. coli O157:H7 (ATCC 700728), S. Typhimurium (ATCC 53647 and 53648), and L. innocua (ATCC 33090) obtained from American Type Culture Collection (ATCC) (Manassas, Va., USA) and maintained as a part of the culture collection at the USDA Eastern Regional Research Center (Wyndmoor, Pa. USA). The bacteria were made to be resistant to nalidixic acid by successive growth in Trypic Soy Broth (TSB) (Difco, Sparks, Md., USA) with increasing nalidixic acid concentrations. All strains were stored at −80° C. in 1 mL of TSB containing 10% glycerol. Working cultures of S. Typhimurium and L. innocua were maintained in 9 mL TSB (supplemented with 100 μg/mL nalidixic acid for S. Typhimurium) at 4° C. after incubating at 37° C. for […], respectively, and sub-cultured each time.
(§2) Each strain of S. Typhimurium and L. innocua was cultured in 9 mL TSB (supplemented with 100 μg/mL nalidixic acid for S. Typhimurium) and incubated at 37° C. for 40 h and 48 h, respectively, harvested by centrifugation at 4000×g for 10 min at 4° C., and resuspended in 9 mL sterile Buffered Peptone Water (BPW; Difco). The pellets were resuspended in BPW to form cell suspensions with a final concentration of 108˜10^9 CFU/mL. Subsequently, suspended pellets of two strains of Salmonella and three strains of L. innocua were combined to obtain two separate culture cocktails.
(§3) Grape tomatoes, granny smith apples, romaine lettuce and cantaloupes were purchased from local markets (Philadelphia, Pa., USA) and kept at 10° C. prior to use. Fruits and vegetables were removed from 10° C. refrigeration and equilibrated to ambient temperature before being inoculated. Romaine lettuce was divided into upper green leaf and midrib tissues. Six tomatoes, six pieces (2×2 cm) of apple skins, five pieces (3×3 cm) of Romaine lettuce upper leaves, five pieces (3 cm length) of Romaine lettuce midrib area and six pieces (2×2 cm) of cantaloupe rinds with 2×3 mm thickness of flesh were used for each treatment per replicate. Bach piece w as spot inoculated with 10 μL of Salmonella and L. innocua by depositing droplets with a micropipette. The inoculated samples were dried in a bio-hood for 1 h (for tomato surfaces, romaine lettuce, apple skins and cantaloupe rinds) or 2 h (for tomato stem scars) at ambient temperature.
(§4) Produce items were placed onto a sterile test tube rack with the inoculated area facing up and the rack with produce pieces were placed inside of a treatment chamber (12×12×24 inch).
(§5) Therefore, each kind of produce was treated with and without cold plasma ionized under the same optimized conditions.
(§6) After each treatment, the tomato stem scars and surfaces with the inoculated bacteria were removed using a pair of sterile scissors. Each type of produce item from the same treatment was combined (total weight: 1.51±0.29 g for tomato stem scars; 2.07±0.15 g for tomato surfaces; 6.37±0.92 g for apple skins; 1.62±0.34 g for Romaine lettuce upper leaves: 13.30±2.97 g for Romaine lettuce midrib tissues: 9.58±1.26 g for cantaloupe rinds) and transferred into an 80 mL filtered stomacher bag. After addition of 30 mL BBL buffered peptone water into the bag, the sample in the bag was homogenized using a mini blender (Mini Mix CC, Interscience laboratories Inc., Woburn, Mass., USA) for 2 min at a setting of 4. […] Tryptic Soy Agar with 200 μg/mL pyruvate acid and 100 μg/mL nalidixic acid (TSA-PN) and PALCAM Agars (Difco) were used for the enumeration of S. Typhimurium and L. innocua, respectively.

Salmonella Typhimurium = format: cell-based
Excerpt: as §1, §2, §3, §4, §5, §6

[1] = Cantaloupe rind, 30 s spray time + 30 min dwell
[2] = Romaine lettuce-midrib, 30 s spray time + 30 min dwell
[3] = Romaine lettuce-upper leaf, 30 s spray time + 30 min dwell
[4] = Tomato-stem scar, three cycles of 20 s spray time plus 20 min dwell time
[5] = Tomato-surface, 8 s spray time + 30 min dwell

OO [H2O2 − cold plasma, hydrogen peroxide]
Reductions of Listeria innocua (Listeria innocua; [1]): 1.57 ± 0.37^y log CFU/piece
Populations of Listeria innocua (Listeria innocua; Cantaloupe rind, 30 s spray time + 30 min dwell, ND1: not detectable (detection limit 0.70 log CFU/piece)): 3.88 ± 0.37^b log CFU/piece
Reductions of Listeria innocua (Listeria innocua; Granny Smith apple, 8 s spray time + 30 min dwell): 2.69 ± 0.20^y log CFU/piece
Populations of Listeria innocua (Listeria innocua; Granny Smith apple, 8 s spray time + 30 min dwell, ND1: not detectable (detection limit 0.70 log CFU/piece)): 2.90 ± 0.20^b log CFU/piece
Reductions of Listeria innocua (Listeria innocua; [2]): 3.77 ± 0.35^y log CFU/piece
Populations of Listeria innocua (Listeria innocua; Romaine lettuce-midrib, 30 s spray time + 30 min dwell, ND2: not detectable (detection limit 0.76 log CFU/piece)): 1.82 ± 0.35^b log CFU/piece
Reductions of Listeria innocua (Listeria innocua; Romaine lettuce-midrib, 30 s spray time + 30 min dwell, listed as hydrogen peroxide (H2O2) aerosols without cold plasma): 3.77 log CFU/piece
Reductions of Listeria innocua (Listeria innocua; [3]): 2.77 ± 0.34^y log CFU/piece
Populations of Listeria innocua (Listeria innocua; Romaine lettuce-upper leaf, 30 s spray time + 30 min dwell, ND2: not detectable (detection limit 0.76 log CFU/piece)): 2.80 ± 0.34^b log CFU/piece
Populations of Listeria innocua (Listeria innocua; [4]): 4.21 ± 0.60^b log CFU/piece
Reductions of Listeria innocua (Listeria innocua; [4]): 1.35 ± 0.60^y log CFU/piece
Reductions of Listeria innocua (Listeria innocua; Tomato-stem scar, three cycles of 20 s spray time plus 20 min dwell time, listed as hydrogen peroxide (H2O2) aerosols without cold plasma): 1.35 log CFU/piece
Reductions of Listeria innocua (Listeria innocua; [5]): 2.74 ± 0.21^y log CFU/piece
Populations of Listeria innocua (Listeria innocua; Tomato-surface, 8 s spray time + 30 min dwell, ND1: not detectable (detection limit 0.70 log CFU/piece)): 2.77 ± 0.21^b log CFU/piece
Populations of Salmonella Typhimurium (Salmonella Typhimurium; [1]): 4.83 ± 0.36^b log CFU/piece
Reductions of Salmonella Typhimurium (Salmonella Typhimurium; [1]): 1.54 ± 0.36^y log CFU/piece
Reductions of Salmonella Typhimurium (Salmonella Typhimurium; Granny Smith apples, 8 s spray time + 30 min dwell): 2.08 ± 0.17^y log CFU/piece
Populations of Salmonella Typhimurium (Salmonella Typhimurium; Granny Smith apples, 8 s spray time + 30 min dwell, ND: not detectable (detection limit 0.70 log CFU/piece)): 3.77 ± 0.17^b log CFU/piece
Reductions of Salmonella Typhimurium (Salmonella Typhimurium; Granny Smith apples, 8 s spray time + 30 min dwell, listed as hydrogen peroxide (H2O2) aerosols without cold plasma): 2.08 log CFU/piece
Populations of Salmonella Typhimurium (Salmonella Typhimurium; [2]): 4.16 ± 0.28^b log CFU/piece
Reductions of Salmonella Typhimurium (Salmonella Typhimurium; [2]): 1.78 ± 0.28^y log CFU/piece
Populations of Salmonella Typhimurium (Salmonella Typhimurium; [3]): 4.70 ± 0.23^b log CFU/piece
Reductions of Salmonella Typhimurium (Salmonella Typhimurium; [3]): 1.72 ± 0.23^y log CFU/piece
Populations of Salmonella Typhimurium (Salmonella Typhimurium; [4]): 4.40 ± 0.28^b log CFU/piece
Reductions of Salmonella Typhimurium (Salmonella Typhimurium; [4]): 1.54 ± 0.28^y log CFU/piece
Reductions of Salmonella Typhimurium (Salmonella Typhimurium; [5]): 3.17 ± 0.33^y log CFU/piece
Populations of Salmonella Typhimurium (Salmonella Typhimurium; Tomato-surface, 8 s spray time + 30 min dwell, ND: not detectable (detection limit 0.70 log CFU/piece)): 2.46 ± 0.33^b log CFU/piece
Reductions of Salmonella Typhimurium (Salmonella Typhimurium; Tomato-surface, 8 s spray time + 30 min dwell, listed as hydrogen peroxide (H2O2) aerosols without cold plasma): 3.17 log CFU/piece
Reductions of Salmonella, range over the fresh produce items (Salmonella Typhimurium; all tested produce items and surfaces, optimized conditions, listed as hydrogen peroxide (H2O2) aerosols without cold plasma): 1.54-3.17 log CFU/piece and 1.53-3.17 log CFU/piece

— US20200345021A1, “METHOD AND SYSTEM FOR ENHANCING THE EFFICACY USING IONIZED/A[…] PEROXIDE IN REDUCING MICROBIAL POPULATIONS, METHOD OF USE THEREOF” (priority 2019, published 2020)
